Reference: patent US20230192772A1, “ANTIMICROBIAL PEPTIDES AND USES THEREOF” (SORBONNE UNIVERSITE, priority 2016, published 2023)
Ends that are not written are not given here.

Experiments:
Format in all cases: cell-based
Mouse red blood cells = assay: Haemolytic activity; details: results not shown
Protocol: (§1) Mouse or donor blood is washed three times in 10 volumes of PBS at 4° C. by centrifugation at 800 g for 10 minutes. The blood sediment is finally diluted to 4% (v/v) in PBS buffer. The test was carried out as follows: either 10 µM, or 50 µM of peptide was added to 100 µL of red blood cell suspension.
(§2) After 1h of incubation at 37° C. followed by centrifugation (800 g, 15 min), the absorbance of the supernatant was measured at 550 nm.
(§3) The negative control for this test (0% haemolysis) contains 5 µL of PBS buffer instead of the solution containing the peptide and the positive control (100% haemolysis) contains 5 µL of 1% Triton X100 instead of the solution containing the peptide.
The haemolytic activity of the antimicrobial peptides was measured as per the protocol described in part 3.1 of Example 3.

Human red blood cells = assay: Haemolytic activity; details: 10 µM and 50 µM, 1h at 37° C.
Protocol: as §1, §2, §3

[1] = Cytotoxic effects on immune cells obtained from mouse bone marrow; details: mouse immune cells originating from bone marrow, read-out: LC50
Protocol: The mouse immune cells are obtained from C57BL/6 or Balb/c mouse bone marrow. The peptides are incubated at 37° C., 5% CO2 in the presence of 500,000 immune cells in RPMI medium at varied concentrations for 2 hours. Peptide-free cells are used as the negative control and cells in the presence of DMSO (30%) are used as the positive control. After incubation, the cells are washed then labelled with Trypan blue so as to measure the cell viability by microscope counting. The LC50 is then calculated as being the concentration of DA2N, K12A and DANa peptides inducing the death of 50% of the immune cells.

LC50 on red blood cells = details: Human red blood cells
Protocol: The human red blood cells were purified from the whole blood of healthy donors (blood bank, IMSS, Cuernavaca, Mexico).
The peptides are incubated at 37° C., 5% CO2 in the presence of 500,000 red blood cells in RPMI medium at varied concentrations and at varied times. Peptide-free cells are used as the negative control and cells incubated for 5 min at 50° C. or in the presence of DMSO (30%) are used as the positive control. The LC50 is then calculated as being the concentration of DA2N and DA2NEQ peptides inducing the death of 50% of the red blood cells.

[2] = tested on: non-immune cells (epithelial cells); assay: Survival of non-immune cells; details: doses of the micromolar order; mouse and human epithelial cells
Protocol: The following non-immune cells were extracted after sacrificing C57BL6 mice or in a surgical context: epithelial cells, adipocytes, hepatocytes.
(§4) The peptides are incubated at 37° C., 5% CO2 in the presence of 500,000 immune and non-immune cells in RPMI medium at varied concentrations and at varied times. Peptide-free cells are used as the negative control and cells incubated for 5 min at 50° C. or in the presence of DMSO (30%) are used as the positive control. After incubation, the cells are washed then labelled with propidium iodide so as to measure the cell viability. The cell viability is analysed by counting or with flow cytometry in the presence of antibodies coupled with fluorochromes corresponding to characteristic markers of each cell population. The LC50 is then calculated as being the concentration of DA2N and DA2NEQ peptides inducing the death of 50% of each one of the immune cell populations.
(§5) Cytometry data processing is carried out with FlowJo software.

[3] = LC50 on immune cells (cytotoxic effect, cell viability)
Protocol: The mouse immune cells are obtained from C57BL6 mouse bone marrow. The human immune cells were purified from the whole blood of healthy donors (blood bank, IMSS, Cuernavaca, Mexico).
as §4, §5

[4] = C57BL6, Neutrophils, Mouse cells
[5] = C57BL6, T lymphocytes, Mouse cells

| Substance | haemolysis of mouse red blood cells (Mouse red blood cells) | haemolysis of human red blood cells (Human red blood cells) | CC50 at 2 hours [1] [µM] | CC50 (LC50 on red blood cells) [µM] | death of non-immune cells [2] | CC50 ([3]; C57BL6, Monocytes, Mouse cells) [µM] | CC50 ([3]; C57BL6, NK cells, Mouse cells) [µM] | CC50 [3, 4] [µM] | CC50 [3, 5] [µM] | CC50 ([3]; Monocytes, Human cells) [µM] | CC50 ([3]; NK cells, Human cells) [µM] | CC50 ([3]; Neutrophils, Human cells) [µM] | CC50 ([3]; T lymphocytes, Human cells) [µM] |
| --- | --- | --- | --- | --- | --- | --- | --- | --- | --- | --- | --- | --- | --- |
| ALWKTLLKKVGKVAGKAVLNAVTNMANQN-OH [DA2N] | do not induce the haemolysis | do not induce the haemolysis | 5 | 750 | induce the death of immune cells but not of non-immune cells | 5 | 3 | 6 | 3 | 4 | 4 | 7.5 | 4 |
| ALWKTLLKKVGKVAGKAVLNAVTNMANQNEQ [DA2NEQ, ALWKTLLKKVGKVAGKAVLNAVTNMANQNEQOH] | do not induce the haemolysis | do not induce the haemolysis | – | 750 | induce the death of immune cells but not of non-immune cells | 7 | 4 | 7.5 | 5 | 4 | 4 | 7 | 5 |
